Measurements as given in paper doi:10.1101/2023.11.24.568596v1 (biorxiv, 2023).

Experiments:
Conditions in all cases: binder
[1] = target: BIKE (Homo sapiens, UniProt Q9NSY1)
[2] = target: T1, BMPR2 (Homo sapiens, UniProt Q13873)
T1 sequence (Q13873 1-1038): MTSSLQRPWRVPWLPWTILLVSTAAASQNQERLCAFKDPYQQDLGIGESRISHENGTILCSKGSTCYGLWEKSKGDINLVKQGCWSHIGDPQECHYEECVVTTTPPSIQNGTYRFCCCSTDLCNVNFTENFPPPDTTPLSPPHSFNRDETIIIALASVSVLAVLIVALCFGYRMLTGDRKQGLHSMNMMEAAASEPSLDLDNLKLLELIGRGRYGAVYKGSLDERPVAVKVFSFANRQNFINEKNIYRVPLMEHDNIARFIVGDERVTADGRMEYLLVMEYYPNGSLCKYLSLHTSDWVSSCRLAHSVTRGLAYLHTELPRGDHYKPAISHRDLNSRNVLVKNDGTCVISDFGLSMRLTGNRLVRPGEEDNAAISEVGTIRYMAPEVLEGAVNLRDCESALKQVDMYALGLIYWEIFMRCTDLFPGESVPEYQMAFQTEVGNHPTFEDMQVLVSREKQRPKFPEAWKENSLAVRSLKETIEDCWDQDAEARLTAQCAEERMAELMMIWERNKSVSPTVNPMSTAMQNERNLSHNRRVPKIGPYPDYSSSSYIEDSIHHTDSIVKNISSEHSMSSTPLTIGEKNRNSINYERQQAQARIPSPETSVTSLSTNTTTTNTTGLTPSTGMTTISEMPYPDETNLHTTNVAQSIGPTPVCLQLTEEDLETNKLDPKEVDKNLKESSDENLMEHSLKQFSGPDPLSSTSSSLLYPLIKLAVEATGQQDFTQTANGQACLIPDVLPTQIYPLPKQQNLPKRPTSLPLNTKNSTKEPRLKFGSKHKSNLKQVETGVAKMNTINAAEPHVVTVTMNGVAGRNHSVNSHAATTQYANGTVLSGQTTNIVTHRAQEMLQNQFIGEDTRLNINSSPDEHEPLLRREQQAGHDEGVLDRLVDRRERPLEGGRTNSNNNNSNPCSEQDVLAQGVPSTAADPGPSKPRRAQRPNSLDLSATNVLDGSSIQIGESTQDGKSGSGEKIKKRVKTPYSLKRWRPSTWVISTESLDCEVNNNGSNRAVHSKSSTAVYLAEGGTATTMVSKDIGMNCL

[3] = target: DAPK1 (Homo sapiens, UniProt P53355)
Sequence of DAPK1 (P53355 whole entry): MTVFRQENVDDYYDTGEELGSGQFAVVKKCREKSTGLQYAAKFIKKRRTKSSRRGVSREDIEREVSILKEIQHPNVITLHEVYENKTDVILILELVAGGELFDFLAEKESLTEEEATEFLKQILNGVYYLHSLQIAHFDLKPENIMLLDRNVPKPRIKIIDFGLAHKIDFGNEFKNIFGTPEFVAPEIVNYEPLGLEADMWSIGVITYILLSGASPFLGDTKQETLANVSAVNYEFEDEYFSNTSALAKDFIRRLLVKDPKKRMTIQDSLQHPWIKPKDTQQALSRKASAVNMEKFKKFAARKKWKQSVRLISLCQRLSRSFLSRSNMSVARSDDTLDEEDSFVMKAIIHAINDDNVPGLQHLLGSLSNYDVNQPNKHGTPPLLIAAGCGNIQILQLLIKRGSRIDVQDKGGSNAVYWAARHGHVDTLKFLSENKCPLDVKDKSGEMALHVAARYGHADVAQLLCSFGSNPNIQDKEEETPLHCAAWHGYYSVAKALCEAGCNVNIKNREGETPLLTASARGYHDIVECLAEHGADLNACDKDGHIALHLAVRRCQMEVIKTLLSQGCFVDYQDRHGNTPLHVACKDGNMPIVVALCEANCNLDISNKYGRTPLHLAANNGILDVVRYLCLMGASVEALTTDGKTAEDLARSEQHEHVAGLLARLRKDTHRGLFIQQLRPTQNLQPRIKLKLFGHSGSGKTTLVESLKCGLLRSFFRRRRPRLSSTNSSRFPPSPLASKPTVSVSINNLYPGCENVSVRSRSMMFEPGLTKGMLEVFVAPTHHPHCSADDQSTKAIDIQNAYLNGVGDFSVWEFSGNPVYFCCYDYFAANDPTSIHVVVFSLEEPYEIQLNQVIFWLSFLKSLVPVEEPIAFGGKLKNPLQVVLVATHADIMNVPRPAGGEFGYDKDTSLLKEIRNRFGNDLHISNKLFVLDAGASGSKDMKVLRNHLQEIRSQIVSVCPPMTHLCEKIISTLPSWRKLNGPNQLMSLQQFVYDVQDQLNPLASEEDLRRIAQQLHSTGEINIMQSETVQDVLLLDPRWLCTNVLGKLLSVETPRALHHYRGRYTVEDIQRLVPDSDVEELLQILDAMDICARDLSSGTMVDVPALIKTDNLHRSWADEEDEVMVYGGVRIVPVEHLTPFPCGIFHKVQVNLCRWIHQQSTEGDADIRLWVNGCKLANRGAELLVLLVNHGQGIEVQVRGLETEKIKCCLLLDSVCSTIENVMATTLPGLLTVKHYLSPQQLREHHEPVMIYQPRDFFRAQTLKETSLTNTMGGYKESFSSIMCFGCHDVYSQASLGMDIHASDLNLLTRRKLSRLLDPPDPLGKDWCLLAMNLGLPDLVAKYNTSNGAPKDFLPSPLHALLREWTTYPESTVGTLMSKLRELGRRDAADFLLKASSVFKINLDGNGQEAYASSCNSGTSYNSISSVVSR

[4] = target: FES (Homo sapiens, UniProt P07332)
Sequence of FES (P07332 whole entry): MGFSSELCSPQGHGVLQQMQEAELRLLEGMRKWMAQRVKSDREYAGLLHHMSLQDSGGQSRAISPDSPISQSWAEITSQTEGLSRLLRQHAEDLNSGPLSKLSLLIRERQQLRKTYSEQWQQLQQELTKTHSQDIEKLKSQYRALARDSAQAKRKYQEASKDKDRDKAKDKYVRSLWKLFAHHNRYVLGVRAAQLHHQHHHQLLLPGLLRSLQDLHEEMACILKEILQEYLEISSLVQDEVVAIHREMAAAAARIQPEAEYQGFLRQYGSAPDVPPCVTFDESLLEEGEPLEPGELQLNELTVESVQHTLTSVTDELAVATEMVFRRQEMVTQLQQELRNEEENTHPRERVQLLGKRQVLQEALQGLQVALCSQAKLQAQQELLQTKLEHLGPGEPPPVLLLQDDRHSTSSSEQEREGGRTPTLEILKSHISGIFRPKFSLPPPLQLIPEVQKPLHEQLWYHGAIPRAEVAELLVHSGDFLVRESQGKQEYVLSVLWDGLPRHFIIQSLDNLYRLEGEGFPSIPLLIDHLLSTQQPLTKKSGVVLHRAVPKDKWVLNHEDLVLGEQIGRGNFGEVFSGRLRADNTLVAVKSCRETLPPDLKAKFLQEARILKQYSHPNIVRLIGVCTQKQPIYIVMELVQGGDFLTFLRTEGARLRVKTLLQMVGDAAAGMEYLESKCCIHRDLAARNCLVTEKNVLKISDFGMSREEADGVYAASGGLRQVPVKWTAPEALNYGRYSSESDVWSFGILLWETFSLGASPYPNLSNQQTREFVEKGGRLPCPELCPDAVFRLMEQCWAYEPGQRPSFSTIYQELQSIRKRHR

[5] = target: T2, MAP2K4 (Homo sapiens, UniProt P45985)
T2 sequence (P45985 1-399): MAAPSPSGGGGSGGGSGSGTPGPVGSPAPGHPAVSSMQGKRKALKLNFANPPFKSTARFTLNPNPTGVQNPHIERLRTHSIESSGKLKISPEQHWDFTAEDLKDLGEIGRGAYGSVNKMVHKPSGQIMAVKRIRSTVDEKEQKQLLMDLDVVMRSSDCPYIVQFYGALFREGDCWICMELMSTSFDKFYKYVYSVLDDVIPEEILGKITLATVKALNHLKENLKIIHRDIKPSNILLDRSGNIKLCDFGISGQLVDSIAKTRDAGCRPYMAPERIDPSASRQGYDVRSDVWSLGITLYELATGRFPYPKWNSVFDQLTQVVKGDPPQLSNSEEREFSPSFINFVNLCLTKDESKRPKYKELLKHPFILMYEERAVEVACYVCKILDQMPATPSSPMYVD

[6] = target: T3, MARK4 (Homo sapiens, UniProt Q96L34)
T3 sequence (Q96L34 1-752): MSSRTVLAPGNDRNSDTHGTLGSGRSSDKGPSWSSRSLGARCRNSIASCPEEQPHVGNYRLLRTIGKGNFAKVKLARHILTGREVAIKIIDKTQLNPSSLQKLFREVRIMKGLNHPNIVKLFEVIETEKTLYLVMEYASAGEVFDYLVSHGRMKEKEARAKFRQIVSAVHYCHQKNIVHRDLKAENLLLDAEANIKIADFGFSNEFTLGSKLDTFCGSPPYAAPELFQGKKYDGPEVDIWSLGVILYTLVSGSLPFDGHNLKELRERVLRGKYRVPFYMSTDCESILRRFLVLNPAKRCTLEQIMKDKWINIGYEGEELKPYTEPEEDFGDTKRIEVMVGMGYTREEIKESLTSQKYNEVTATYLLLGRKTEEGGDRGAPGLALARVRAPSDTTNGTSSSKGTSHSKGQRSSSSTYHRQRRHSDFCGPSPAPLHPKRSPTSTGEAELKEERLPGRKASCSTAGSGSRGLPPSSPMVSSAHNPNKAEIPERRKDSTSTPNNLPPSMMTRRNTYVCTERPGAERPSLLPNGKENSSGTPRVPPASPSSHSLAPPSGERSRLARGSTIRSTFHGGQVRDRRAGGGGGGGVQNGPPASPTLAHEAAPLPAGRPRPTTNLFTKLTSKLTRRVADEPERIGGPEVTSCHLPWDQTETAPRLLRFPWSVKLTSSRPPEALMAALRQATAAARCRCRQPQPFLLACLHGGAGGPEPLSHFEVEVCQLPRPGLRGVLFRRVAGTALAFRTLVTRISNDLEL

[7] = target: PAK4 (Homo sapiens, UniProt O96013)
Sequence of PAK4 (O96013 whole entry): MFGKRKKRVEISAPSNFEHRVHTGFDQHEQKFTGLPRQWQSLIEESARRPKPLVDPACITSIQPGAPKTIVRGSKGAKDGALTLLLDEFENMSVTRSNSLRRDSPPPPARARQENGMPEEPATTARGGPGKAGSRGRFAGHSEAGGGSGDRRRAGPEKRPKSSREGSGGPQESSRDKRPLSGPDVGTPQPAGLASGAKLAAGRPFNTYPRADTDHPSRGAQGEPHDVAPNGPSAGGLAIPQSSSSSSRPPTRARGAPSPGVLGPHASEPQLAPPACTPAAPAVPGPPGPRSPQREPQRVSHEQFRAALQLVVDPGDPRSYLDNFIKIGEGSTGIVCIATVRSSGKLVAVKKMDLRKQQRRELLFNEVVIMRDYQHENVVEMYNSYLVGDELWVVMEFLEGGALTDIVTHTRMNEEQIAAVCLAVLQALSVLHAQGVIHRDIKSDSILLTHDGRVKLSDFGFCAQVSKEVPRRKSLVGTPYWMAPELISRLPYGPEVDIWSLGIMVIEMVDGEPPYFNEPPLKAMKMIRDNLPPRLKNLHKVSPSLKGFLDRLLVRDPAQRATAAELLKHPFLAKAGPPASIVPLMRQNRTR

[8] = target: Erk2 (Homo sapiens, UniProt P28482)
Sequence of Erk2 (P28482 whole entry): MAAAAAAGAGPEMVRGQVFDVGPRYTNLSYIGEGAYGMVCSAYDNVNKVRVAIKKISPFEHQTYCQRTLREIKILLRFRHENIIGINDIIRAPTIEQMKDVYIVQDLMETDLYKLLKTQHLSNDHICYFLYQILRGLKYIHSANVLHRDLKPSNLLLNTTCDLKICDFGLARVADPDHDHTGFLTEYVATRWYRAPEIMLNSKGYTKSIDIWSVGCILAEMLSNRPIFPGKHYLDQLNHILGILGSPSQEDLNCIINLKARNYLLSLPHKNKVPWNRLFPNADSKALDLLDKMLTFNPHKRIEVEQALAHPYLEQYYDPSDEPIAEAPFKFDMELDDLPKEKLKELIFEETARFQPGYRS

[9] = target: GSK3B (Homo sapiens, UniProt P49841)
Sequence of GSK3B (P49841 whole entry): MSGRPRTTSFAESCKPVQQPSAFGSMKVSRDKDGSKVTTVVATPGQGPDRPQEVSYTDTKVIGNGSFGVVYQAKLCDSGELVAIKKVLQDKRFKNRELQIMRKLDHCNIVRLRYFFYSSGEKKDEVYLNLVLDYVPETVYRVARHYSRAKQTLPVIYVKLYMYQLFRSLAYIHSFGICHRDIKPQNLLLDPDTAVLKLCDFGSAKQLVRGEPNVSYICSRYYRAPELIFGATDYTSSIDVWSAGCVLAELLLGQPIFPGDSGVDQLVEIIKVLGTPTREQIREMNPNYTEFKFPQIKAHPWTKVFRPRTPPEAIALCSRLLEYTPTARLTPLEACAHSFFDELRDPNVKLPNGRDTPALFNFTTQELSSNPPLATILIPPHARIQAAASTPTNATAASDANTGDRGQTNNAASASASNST

[10] = target: T2, MAP2K4; remark: listed apart in the source

Sequence of BIKE (Q9NSY1 whole entry): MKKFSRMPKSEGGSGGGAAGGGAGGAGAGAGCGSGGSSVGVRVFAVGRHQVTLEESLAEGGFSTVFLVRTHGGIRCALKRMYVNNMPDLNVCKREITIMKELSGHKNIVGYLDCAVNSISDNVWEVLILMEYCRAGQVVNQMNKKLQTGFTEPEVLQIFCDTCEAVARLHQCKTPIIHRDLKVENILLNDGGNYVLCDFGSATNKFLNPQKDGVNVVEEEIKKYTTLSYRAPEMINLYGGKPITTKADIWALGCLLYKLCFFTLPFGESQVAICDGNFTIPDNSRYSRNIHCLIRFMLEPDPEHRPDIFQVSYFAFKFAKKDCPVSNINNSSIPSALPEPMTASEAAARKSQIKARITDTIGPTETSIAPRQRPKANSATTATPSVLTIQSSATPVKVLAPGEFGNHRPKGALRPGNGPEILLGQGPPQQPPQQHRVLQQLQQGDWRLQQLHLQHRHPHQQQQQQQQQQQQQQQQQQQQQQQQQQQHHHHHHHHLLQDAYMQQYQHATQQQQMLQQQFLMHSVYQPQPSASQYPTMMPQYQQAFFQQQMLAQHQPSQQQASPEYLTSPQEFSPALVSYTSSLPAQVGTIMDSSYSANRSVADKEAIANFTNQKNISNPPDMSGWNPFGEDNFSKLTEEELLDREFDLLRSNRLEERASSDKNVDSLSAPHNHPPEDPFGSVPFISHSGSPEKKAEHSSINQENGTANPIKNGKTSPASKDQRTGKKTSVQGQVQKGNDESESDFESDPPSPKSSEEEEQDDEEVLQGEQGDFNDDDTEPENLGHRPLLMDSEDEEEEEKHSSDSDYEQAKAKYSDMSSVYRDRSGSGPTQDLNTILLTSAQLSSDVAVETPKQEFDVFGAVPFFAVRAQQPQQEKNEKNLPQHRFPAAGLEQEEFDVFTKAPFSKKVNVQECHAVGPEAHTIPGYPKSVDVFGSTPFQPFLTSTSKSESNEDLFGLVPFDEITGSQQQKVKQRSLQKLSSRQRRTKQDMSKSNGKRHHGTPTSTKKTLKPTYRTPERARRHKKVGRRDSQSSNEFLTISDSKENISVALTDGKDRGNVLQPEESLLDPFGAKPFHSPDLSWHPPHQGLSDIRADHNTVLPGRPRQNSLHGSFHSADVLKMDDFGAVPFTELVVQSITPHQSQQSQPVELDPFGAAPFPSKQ

## CNc1ncc2cc(-c3ccc(-c4cccc(C)n4)cc3Cl)c(=O)n(CCCCN)c2n1 [compound 20, MRLW5]
[1]
  ΔTm MRLW5 (20): 3.7 °C
[2]
  ΔTm MRLW5 (20): -0.1 °C
[3]
  ΔTm MRLW5 (20): -0.8 °C
[4]
  ΔTm MRLW5 (20): 5.9 °C
[5]
  ΔTm MRLW5 (20): 7.7 °C
[6]
  ΔTm MRLW5 (20): 8.2 °C
[7]
  ΔTm MRLW5 (20): 4.8 °C

## CNc1ncc2cc(-c3ccc(-c4cccc(C)n4)cc3Cl)c(=O)n(CCC3CCNCC3)c2n1 [compound 22, 6-(2-Chloro-4-(6-methylpyridin-2-yl)phenyl)-2-(methylamino)-8-(2-(piperidin-4-yl)ethyl)pyrido[2,3-d]pyrimidin-7(8H)-one]
[1]
  ΔTm 22: 7.1 °C
[2]
  ΔTm 22: -0.3 °C
[3]
  ΔTm 22: -0.8 °C
[4]
  ΔTm 22: 5.4 °C
[5]
  ΔTm 22: 6.1 °C
[6]
  ΔTm 22: 5.8 °C
[7]
  ΔTm 22: 4.7 °C

## CNc1ncc2cc(-c3ccc(-c4cccc(C)n4)cc3Cl)c(=O)n(C[C@H]3CC[C@H](N)CC3)c2n1 [compound 23, 23]
[1]
  ΔTm 23: 6.9 °C
[2]
  ΔTm 23: -0.7 °C
[3]
  ΔTm 23: -0.4 °C
[4]
  ΔTm 23: 5.5 °C
[5]
  ΔTm 23: 8.2 °C
[6]
  ΔTm 23: 12.7 °C
[7]
  ΔTm 23: 4.5 °C

## Cc1cccc(-c2ccc(-c3cc4cnc(NC(CO)CO)nc4n(CCCCN)c3=O)c(Cl)c2)n1 [compound 24, 8-(4-Aminobutyl)-6-(2-chloro-4-(6-methylpyridin-2-yl)phenyl)-2-((1,3-dihydroxypropan-2-yl)amino)pyrido[2,3-d]pyrimidin-7(8H)-one]
[1]
  ΔTm MR24 (24): -0.4 °C
[2]
  ΔTm MR24 (24): -0.1 °C
[3]
  ΔTm MR24 (24): -0.8 °C
[4]
  ΔTm MR24 (24): 4.3 °C
[5]
  ΔTm MR24 (24): 5.0 °C
[6]
  ΔTm MR24 (24): 3.3 °C
[7]
  ΔTm MR24 (24): 2.2 °C

## Cc1cccc(-c2ccc(-c3cc4cnc(NCCCc5ccc(N)cc5)nc4n(CCCCN)c3=O)c(Cl)c2)n1 [compound 25, 8-(4-Aminobutyl)-2-((3-(4-aminophenyl)propyl)amino)-6-(2-chloro-4-(6-methylpyridin-2-yl)phenyl)pyrido[2,3-d]pyrimidin-7(8H)-one]
[1]
  ΔTm 25: 1.8 °C
[2]
  ΔTm 25: -0.2 °C
[3]
  ΔTm 25: -1.0 °C
[4]
  ΔTm 25: 5.9 °C
[5]
  ΔTm 25: 7.9 °C
[6]
  ΔTm 25: 5.8 °C
[7]
  ΔTm 25: 5.5 °C

## Cc1cccc(-c2ccc(-c3cc4cnc(NCCCN5CCOCC5)nc4n(CCCCN)c3=O)c(Cl)c2)n1 [compound 26, MR26]
[1]
  ΔTm MR26 (26): 0.7 °C
[2]
  ΔTm MR26 (26): -0.2 °C
[3]
  ΔTm MR26 (26): -0.7 °C
[4]
  ΔTm MR26 (26): 5.6 °C
[5]
  ΔTm MR26 (26): 5.6 °C
[6]
  ΔTm MR26 (26): 3.7 °C
[7]
  ΔTm MR26 (26): 2.4 °C

## Cc1cccc(-c2ccc(-c3cc4cnc(NCCCN5CCCC5=O)nc4n(CCCCN)c3=O)c(Cl)c2)n1 [compound 27, MR30]
[8]
  ΔTm MR30 (27): 0.4 °C
[9]
  ΔTm MR30 (27): 1.9 °C
[10]
  ΔTm MR30 (27): 5.2 °C

## Cc1cccc(-c2ccc(-c3cc4cnc(Nc5cc(C(F)(F)F)ccc5C)nc4n(CCCCN)c3=O)c(Cl)c2)n1 [compound 28, 8-(4-Aminobutyl)-6-(2-chloro-4-(6-methylpyridin-2-yl)phenyl)-2-((2-methyl-5-(trifluoromethyl)phenyl)amino)pyrido[2,3-d]pyrimidin-7(8H)-one]
[8]
  ΔTm 28: 0.7 °C
[9]
  ΔTm 28: 0.3 °C
[10]
  ΔTm 28: 11.0 °C

## Cc1cccc(-c2ccc(-c3cc4cnc(NCCCN5CCNCC5)nc4n(CCCCN)c3=O)c(Cl)c2)n1 [compound 29, 8-(4-Aminobutyl)-6-(2-chloro-4-(6-methylpyridin-2-yl)phenyl)-2-((3-(piperazin-1-yl)propyl)amino)pyrido[2,3-d]pyrimidin-7(8H)-one]
[8]
  ΔTm 29: -0.4 °C
[9]
  ΔTm 29: 0.3 °C
[10]
  ΔTm 29: 3.5 °C

## Cc1cccc(-c2ccc(-c3cc4cnc(Nc5ccc(CCCO)cc5)nc4n(CCCCN)c3=O)c(Cl)c2)n1 [compound 30, 8-(4-Aminobutyl)-6-(2-chloro-4-(6-methylpyridin-2-yl)phenyl)-2-((4-(3-hydroxypropyl)phenyl)amino)pyrido[2,3-d]pyrimidin-7(8H)-one]
[8]
  ΔTm 30: 3.5 °C
[9]
  ΔTm 30: 1.9 °C
[10]
  ΔTm 30: 9.7 °C

## Cc1cccc(-c2ccc(-c3cc4cnc(Nc5ccc(O)cc5)nc4n(CCCCN)c3=O)c(Cl)c2)n1 [compound 31, 8-(4-Aminobutyl)-6-(2-chloro-4-(6-methylpyridin-2-yl)phenyl)-2-((4-hydroxyphenyl)amino) pyrido[2,3-d]pyrimidin-7(8H)-one]
[8]
  ΔTm 31: 1.3 °C
[9]
  ΔTm 31: 3.2 °C
[10]
  ΔTm 31: 10.8 °C

## Cc1cccc(-c2ccc(-c3cc4cnc(Nc5ccc(C)c(O)c5)nc4n(CCCCN)c3=O)c(Cl)c2)n1 [compound 32, 8-(4-Aminobutyl)-6-(2-chloro-4-(6-methylpyridin-2-yl)phenyl)-2-((3-hydroxy-4-methylphenyl)amino)pyrido[2,3-d]pyrimidin-7(8H)-one]
[8]
  ΔTm 32: 1.9 °C
[9]
  ΔTm 32: 2.2 °C
[10]
  ΔTm 32: 10.8 °C
